{"source": "patent US8153593B2", "about": "“Transglutaminase inhibitors and methods of use thereof” (The Board of Trustees of the Leland Stanford Junior …, priority 2003, dated 2012)", "key": {"B16 mouse melanoma cells": {"tested_on": "B16 mouse melanoma cells", "experiment": "Melanoma cell treatment with KCC009 and/or BCNU", "type": "cell-based", "conditions": "24 h, 1 mM KCC009 alone or with 6.25 μM BCNU", "procedure": "FIG. 6A-6D: Photomicrographs of B16 (mouse melanoma cells) after 24 h treatment with KCC009 and/or BCNU. A) Control; B) 1 mM KCC009 only; C) 6.25 μM BCNU only; D) KCC009+BCNU combination.\nActivity of KCC009 against melanomas: Melanomas are cancers of the neural crest-derived cells that provide pigmentation to skin and other tissues. No current treatments substantially enhance patient survival once metastasis has occurred."}, "[1]": {"tested_on": "subcutaneous murine DBT glioblastoma tumors", "experiment": "Subcutaneous DBT glioblastoma tumor study with BCNU", "conditions": "in vivo, combination with BCNU"}, "tumor associated TG2": {"target": "T1, tumor associated TG2 (Mus musculus, UniProt P21981)", "T1 construct": "from tissue; host or cells: intracranial DBT glioblastoma tumours from dosed mice", "T1 sequence (P21981 1-686)": "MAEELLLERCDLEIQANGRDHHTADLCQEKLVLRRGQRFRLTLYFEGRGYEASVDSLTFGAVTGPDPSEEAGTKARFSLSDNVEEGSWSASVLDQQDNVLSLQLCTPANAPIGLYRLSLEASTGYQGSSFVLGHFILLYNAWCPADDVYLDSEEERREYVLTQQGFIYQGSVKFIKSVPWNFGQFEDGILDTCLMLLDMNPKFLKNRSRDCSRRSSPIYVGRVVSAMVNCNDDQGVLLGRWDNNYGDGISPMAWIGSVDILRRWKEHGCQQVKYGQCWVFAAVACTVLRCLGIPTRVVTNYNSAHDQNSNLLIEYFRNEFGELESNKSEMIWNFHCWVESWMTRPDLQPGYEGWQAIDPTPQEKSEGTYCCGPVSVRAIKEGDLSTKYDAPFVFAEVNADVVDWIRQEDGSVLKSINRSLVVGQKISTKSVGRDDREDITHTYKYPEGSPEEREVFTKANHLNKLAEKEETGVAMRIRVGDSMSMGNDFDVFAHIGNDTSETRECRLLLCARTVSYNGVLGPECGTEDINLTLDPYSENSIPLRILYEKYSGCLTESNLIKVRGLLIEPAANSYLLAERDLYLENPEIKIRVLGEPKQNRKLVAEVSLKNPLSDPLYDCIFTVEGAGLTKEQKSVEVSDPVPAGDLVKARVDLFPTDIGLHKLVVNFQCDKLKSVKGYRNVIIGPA", "experiment": "Intracranial DBT tumor associated TG2 activity after dosing", "type": "in vivo, mice", "procedure": "To test whether therapeutic doses of KCC009 can modulate TG2 activity associated with intracranial glioblastomas, DBT tumors were injected intracranially in mice. As judged by MRI, the mice consistently established intracranial tumors after 7-10 days following injections, which, if untreated, caused death by 2-3 weeks. In an initial dose-finding experiment, cohorts of mice were administered 4 daily doses of vehicle or KCC009 (12.5 mg/kg, 25 mg/kg and 50 mg/kg) starting on day 11 after intra-cranial injections. Twenty-four hours later, the mice were sacrificed and tumors analyzed. […] Based on these findings a dose of 35 mg/kg was used for subsequent experiments in mice harboring intracranial DBT tumors.\nAs summarized in Table 4, KCC009 treatment led to significant suppression of TG2 activity after 15 min, whereas enzyme activity recovers fully by 24 h. Both uninhibited and inhibited activity levels are consistent with similar measurements in the small intestinal mucosa (data not shown)."}, "[2]": {"target": "T2, recombinant human tissue transglutaminase (Homo sapiens, UniProt P21980)", "T2 construct": "made in house", "T2 sequence (P21980 1-687)": "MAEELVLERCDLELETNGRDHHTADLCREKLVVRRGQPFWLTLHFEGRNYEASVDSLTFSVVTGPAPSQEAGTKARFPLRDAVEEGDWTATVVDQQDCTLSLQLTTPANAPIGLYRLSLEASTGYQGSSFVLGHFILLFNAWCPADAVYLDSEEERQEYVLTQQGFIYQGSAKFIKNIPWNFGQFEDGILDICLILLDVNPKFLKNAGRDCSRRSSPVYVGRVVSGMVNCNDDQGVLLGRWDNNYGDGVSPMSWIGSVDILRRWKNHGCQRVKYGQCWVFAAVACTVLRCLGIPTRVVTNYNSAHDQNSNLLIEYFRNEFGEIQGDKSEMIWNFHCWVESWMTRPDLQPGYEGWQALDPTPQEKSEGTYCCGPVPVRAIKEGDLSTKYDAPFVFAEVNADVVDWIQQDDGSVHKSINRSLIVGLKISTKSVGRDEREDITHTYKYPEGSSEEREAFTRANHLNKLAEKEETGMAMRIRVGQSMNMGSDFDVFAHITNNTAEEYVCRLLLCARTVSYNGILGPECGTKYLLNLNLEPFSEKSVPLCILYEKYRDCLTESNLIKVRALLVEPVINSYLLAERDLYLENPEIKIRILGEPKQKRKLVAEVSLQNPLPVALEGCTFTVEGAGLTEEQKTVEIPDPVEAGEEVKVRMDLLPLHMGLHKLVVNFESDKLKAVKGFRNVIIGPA", "experiment": "tTGase inhibition assay, residual activity by glutamate dehydrogenase coupled assay", "type": "biochemical", "conditions": "dihydroisoxazoles, Table 1"}, "[3]": {"target": "T3, small intestine mucosal TG2 (Mus musculus, UniProt P21981)", "T3 construct": "from tissue; host or cells: mouse small intestinal mucosa", "T3 sequence (P21981 1-686)": "T1 sequence (P21981 1-686)", "experiment": "Small intestine mucosal TG2 activity after intra-peritoneal dosing", "type": "in vivo, mice", "procedure": "FIG. 7: Time dependent inhibition of small intestine mucosal TG2 in mice dosed intra-peritoneally with 60 mg/kg KCC009. Mice were sacrificed at different times, intestinal mucosa were harvested and assayed for TG2 activity.\nDue to the absence of an appropriate animal model for Celiac Sprue, the therapeutic benefit of TG2 inhibitors for this disease can only be validated in patients. Our goal is therefore to identify a safe, oral TG2 inhibitor that can block mucosal TG2 activity in the upper small intestine of Celiac Sprue patients. Such an agent could be used in the context of a short (2 week) blinded crossover trial in Celiac Sprue patients to determine if TG2 inhibition protects a Celiac Sprue patient from gluten-induced malabsorption. From available data, KCC009 may be precisely such a compound. […] To test whether orally administered KCC009 can inhibit jejunal TG2 activity, adult male rats were dosed with 35 mg/kg KCC009 in a kneaded gluten vehicle. Animals were sacrificed 1 h after administration of either vehicle-gluten (n=3) or drug-gluten (n=4), and jejunal mucosa was harvested. In vehicle treated animals, jejunal TG2 activity was 21±7 pmol/min/mg protein, whereas in KCC009 treated rats TG2 activity of 5.5±3 pmol/min/mg protein was observed. Thus, a suitable oral formulation may therefore enable local delivery of KCC009 to intestinal mucosa."}}}
{"smiles": "O=C(N[C@@H](Cc1ccc(O)cc1)C(=O)NCC1CC(Br)=NO1)OCc1ccccc1", "note": "(stereo partly drawn) [Compound 59]", "values": [{"measurement": "sensitivity of melanoma cells", "setting": "B16 mouse melanoma cells", "value": "sensitive"}, {"measurement": "synergism with BCNU", "setting": "[1]", "value": "excellent synergism"}, {"measurement": "TG2 activity-BCNU + KCC009", "setting": "tumor associated TG2; BCNU + 50 mg/kg KCC009, 15 min after last of four daily doses", "value": "1.2 ± 0.3 (n = 4) nmol/h/mg protein"}, {"measurement": "TG2 activity-BCNU + KCC009", "setting": "tumor associated TG2; BCNU + 50 mg/kg KCC009, 24 h after last of four daily doses", "value": "2.1 ± 0.2 (n = 3) nmol/h/mg protein"}, {"measurement": "kinh", "setting": "[2]", "value": 0.86, "unit": "min⁻¹"}, {"measurement": "kinh/Ki", "setting": "[2]", "value": 2000, "unit": "min^−1M^−1"}, {"measurement": "time to complete recovery of TG2 activity", "setting": "[3]; 60 mg/kg intra-peritoneal", "value": "≤ 8", "unit": "h"}, {"measurement": "inhibition of TG2 activity", "setting": "[3]; 60 mg/kg intra-peritoneal, short timescale (˜1 h)", "value": "strong inhibition of TG2 activity"}, {"measurement": "TG2 inhibition in small intestinal tissue", "setting": "[3]; mice, preliminary pharmacodynamic study", "value": "efficient TG2 inhibition"}]}
